Results: patent publication US8415469B2, “Compounds and methods for kinase modulation, and indications therefor” (Plexxikon Inc., priority 2005, dated 2013)

What was measured:
Format in all cases: biochemical
Fms = target: T1, Fms (Homo sapiens, UniProt P07333); experiment: AlphaScreen kinase assay, Fms; settings: read-out: IC50, activity toward kinase Fms
T1 construct: purchased Upstate Biotechnology

B-Raf V600E = target: T2, B-Raf V600E (Homo sapiens, UniProt P15056, V600E); experiment: AlphaScreen kinase assay, B-Raf V600E; settings: read-out: IC50, activity toward kinase B-Raf V600E
T2 construct: P4254. pFastBacBD-CDC37 BRAF D437-K722-X, V600E; His6 with pFastBac HT leader (TEV site) (N); made in house; host or cells: Sf9 (baculovirus; chaperone CDC37 co-expressed)
T2 sequence (P15056 with tags, fused parts or gaps V600E): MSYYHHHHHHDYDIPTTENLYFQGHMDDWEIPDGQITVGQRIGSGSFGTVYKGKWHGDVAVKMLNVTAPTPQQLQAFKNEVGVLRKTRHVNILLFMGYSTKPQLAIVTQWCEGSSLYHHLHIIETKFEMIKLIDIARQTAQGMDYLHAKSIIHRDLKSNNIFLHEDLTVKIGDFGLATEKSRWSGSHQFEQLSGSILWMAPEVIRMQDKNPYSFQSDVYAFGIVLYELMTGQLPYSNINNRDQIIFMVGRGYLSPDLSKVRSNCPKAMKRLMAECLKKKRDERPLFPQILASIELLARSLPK

Jnk1 = target: T3, Jnk1 (Homo sapiens, UniProt P45983); experiment: AlphaScreen kinase assay, Jnk1; settings: read-out: IC50, activity toward kinase Jnk1
T3 construct: purchased Upstate Biotechnology
T3 sequence (P45983 whole entry): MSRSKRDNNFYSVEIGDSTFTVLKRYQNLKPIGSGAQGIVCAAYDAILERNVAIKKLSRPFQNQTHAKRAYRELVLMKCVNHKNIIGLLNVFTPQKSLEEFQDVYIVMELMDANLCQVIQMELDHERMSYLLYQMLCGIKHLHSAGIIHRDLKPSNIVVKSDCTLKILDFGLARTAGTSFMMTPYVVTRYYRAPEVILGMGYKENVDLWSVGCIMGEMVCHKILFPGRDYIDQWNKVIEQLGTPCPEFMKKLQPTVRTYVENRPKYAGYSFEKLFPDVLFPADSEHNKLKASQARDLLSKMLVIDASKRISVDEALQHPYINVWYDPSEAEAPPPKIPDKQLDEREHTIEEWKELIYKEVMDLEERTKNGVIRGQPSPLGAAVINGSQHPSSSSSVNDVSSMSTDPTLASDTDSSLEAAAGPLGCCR

B-Raf = target: T4, B-Raf (Homo sapiens, UniProt P15056); experiment: AlphaScreen kinase assay, B-Raf; settings: read-out: IC50, activity toward kinase B-Raf
T4 construct: purchased Upstate Biotechnology
T4 sequence (P15056 whole entry): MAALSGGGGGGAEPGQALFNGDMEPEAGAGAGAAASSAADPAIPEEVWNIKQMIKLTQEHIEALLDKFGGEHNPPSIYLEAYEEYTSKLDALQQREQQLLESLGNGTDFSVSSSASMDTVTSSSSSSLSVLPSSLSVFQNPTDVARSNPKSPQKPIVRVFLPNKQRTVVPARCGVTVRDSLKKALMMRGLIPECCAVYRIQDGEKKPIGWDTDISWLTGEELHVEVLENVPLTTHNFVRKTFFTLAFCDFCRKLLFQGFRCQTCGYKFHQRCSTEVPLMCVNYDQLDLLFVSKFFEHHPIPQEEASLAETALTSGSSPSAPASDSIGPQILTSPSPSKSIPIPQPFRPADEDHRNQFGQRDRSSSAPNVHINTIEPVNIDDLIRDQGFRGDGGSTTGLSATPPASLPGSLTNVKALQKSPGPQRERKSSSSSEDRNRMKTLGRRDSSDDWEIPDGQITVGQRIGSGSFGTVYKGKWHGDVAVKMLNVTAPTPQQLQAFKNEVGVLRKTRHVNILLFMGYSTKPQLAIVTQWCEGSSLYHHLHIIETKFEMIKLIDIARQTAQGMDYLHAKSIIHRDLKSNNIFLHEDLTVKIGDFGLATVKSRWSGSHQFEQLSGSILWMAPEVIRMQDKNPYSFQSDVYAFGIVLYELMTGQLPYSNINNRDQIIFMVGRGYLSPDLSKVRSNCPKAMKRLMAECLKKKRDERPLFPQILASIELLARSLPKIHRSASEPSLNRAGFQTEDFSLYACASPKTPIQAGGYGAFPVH

Kit = target: T5, Kit (Homo sapiens, UniProt P10721); experiment: AlphaScreen kinase assay, Kit; settings: read-out: IC50, activity toward kinase Kit
T5 construct: P1332.N6 BI PTP KIT M552-K948-X COD; His6 (N); made in house; host or cells: E. coli (PTP1B co-expressed)
T5 sequence (P10721 with tags, fused parts or gaps): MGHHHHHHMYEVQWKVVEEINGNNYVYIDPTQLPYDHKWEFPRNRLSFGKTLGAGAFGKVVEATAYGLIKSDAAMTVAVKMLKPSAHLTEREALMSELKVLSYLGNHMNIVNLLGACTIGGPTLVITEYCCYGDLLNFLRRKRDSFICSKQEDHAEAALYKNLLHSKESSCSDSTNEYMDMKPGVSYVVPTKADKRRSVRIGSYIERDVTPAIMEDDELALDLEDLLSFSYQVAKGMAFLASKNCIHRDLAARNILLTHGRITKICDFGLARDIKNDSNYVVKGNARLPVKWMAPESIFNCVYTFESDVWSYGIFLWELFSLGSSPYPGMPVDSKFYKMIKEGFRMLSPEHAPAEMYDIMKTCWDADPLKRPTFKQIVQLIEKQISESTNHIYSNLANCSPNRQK

Jnk3 = target: T6, Jnk3 (Homo sapiens, UniProt P53779); experiment: AlphaScreen kinase assay, Jnk3; settings: read-out: IC50, activity toward kinase Jnk3
T6 construct: purchased Upstate Biotechnology
T6 sequence (P53779 whole entry): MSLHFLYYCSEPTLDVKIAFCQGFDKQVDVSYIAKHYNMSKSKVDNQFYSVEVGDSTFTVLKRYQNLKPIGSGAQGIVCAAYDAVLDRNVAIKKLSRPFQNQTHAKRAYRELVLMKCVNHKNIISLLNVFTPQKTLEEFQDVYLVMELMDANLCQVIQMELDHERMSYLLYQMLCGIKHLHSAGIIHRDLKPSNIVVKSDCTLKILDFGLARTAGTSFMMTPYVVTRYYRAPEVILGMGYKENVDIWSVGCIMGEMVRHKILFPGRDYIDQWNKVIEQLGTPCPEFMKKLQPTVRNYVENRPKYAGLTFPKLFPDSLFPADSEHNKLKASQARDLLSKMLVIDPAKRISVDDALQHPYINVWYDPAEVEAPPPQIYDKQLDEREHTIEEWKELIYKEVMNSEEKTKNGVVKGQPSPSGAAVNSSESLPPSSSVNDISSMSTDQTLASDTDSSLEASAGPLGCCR

FGFR1 = target: T7, FGFR1 (Homo sapiens, UniProt P11362, C488A/C584S); experiment: AlphaScreen kinase assay, FGFR1; settings: read-out: IC50, activity toward kinase FGFR
T7 construct: P1351.pET N6 BI-PTP FGFR A458-E765-X C488A, C584S; made in house; host or cells: E. coli (PTP1B co-expressed)
T7 sequence (P11362 458-765 C488A/C584S): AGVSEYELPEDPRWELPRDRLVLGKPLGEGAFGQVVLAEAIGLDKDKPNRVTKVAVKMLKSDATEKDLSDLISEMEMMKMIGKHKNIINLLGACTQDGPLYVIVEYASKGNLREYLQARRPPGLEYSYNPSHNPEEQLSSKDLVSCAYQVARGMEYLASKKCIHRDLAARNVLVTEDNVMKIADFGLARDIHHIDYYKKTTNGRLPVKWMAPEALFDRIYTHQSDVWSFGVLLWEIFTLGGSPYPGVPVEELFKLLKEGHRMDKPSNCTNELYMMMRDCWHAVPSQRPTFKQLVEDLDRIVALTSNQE

Kdr = target: T8, Kdr (Homo sapiens, UniProt P35968); experiment: Z'-Lyte FRET kinase assay (Invitrogen), Kdr; settings: read-out: IC50, activity toward kinase Kdr
T8 construct: purchased Invitrogen (assay run by Invitrogen)
T8 sequence (P35968 20-1356): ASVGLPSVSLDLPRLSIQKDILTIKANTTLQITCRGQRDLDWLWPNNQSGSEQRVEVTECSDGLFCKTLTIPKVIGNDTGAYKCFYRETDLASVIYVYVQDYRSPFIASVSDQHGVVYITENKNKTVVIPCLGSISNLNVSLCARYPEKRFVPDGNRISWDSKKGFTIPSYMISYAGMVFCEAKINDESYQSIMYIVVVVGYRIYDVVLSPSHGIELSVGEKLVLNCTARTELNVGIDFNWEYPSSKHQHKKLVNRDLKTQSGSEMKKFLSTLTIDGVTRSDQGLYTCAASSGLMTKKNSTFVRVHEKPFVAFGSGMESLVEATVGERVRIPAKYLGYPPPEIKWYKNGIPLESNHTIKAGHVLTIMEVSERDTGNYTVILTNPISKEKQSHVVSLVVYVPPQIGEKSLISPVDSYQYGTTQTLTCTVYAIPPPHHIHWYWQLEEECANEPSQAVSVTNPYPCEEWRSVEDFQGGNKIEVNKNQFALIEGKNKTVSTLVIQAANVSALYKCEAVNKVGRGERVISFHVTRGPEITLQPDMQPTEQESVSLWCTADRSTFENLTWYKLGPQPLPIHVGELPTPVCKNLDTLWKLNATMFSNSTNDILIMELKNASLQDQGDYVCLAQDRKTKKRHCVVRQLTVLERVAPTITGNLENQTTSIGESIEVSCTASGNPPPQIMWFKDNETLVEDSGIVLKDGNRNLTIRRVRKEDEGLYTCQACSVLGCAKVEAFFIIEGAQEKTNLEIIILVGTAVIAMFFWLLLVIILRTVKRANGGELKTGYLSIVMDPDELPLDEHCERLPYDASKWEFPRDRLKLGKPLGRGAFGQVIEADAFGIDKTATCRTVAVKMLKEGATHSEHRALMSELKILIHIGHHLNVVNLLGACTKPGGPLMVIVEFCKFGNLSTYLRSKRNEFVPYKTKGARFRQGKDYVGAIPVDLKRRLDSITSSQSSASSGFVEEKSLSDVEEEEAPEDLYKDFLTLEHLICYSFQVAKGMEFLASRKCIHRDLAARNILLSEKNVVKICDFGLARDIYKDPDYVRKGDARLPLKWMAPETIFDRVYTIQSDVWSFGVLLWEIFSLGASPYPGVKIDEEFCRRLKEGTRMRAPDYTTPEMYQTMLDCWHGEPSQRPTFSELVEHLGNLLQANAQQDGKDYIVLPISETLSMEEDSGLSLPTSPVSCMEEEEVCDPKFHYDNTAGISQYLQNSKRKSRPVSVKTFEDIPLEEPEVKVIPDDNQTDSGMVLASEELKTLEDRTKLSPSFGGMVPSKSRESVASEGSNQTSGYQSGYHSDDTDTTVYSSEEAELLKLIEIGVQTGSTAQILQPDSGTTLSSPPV

Ret = target: T9, Ret (Homo sapiens, UniProt P07949); experiment: AlphaScreen kinase assay, Ret; settings: read-out: IC50, activity toward kinase Ret
T9 construct: P1378.pET-SF BI-PTP RET H661-R1012 HIS; made in house
T9 sequence (P07949 with tags, fused parts or gaps): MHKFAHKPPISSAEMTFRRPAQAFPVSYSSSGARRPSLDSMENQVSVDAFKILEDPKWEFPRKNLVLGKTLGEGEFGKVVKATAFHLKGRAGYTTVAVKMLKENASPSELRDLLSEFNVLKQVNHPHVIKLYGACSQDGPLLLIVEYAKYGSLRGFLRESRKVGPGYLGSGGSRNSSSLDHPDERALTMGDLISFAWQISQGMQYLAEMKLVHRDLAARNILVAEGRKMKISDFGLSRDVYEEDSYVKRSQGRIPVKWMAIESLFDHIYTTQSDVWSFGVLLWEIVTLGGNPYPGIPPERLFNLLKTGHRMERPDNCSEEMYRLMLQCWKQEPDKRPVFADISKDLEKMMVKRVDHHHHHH

Flt1 = target: T10, Flt1 (Homo sapiens, UniProt P17948); experiment: AlphaScreen kinase assay, Flt1; settings: read-out: IC50, activity toward kinase Flt1
T10 construct: P1826.pETN6 BI-PTP FLT1 M799-D1165-X WT; His6 (N); made in house; host or cells: E. coli (PTP1B co-expressed)
T10 sequence (P17948 with tags, fused parts or gaps): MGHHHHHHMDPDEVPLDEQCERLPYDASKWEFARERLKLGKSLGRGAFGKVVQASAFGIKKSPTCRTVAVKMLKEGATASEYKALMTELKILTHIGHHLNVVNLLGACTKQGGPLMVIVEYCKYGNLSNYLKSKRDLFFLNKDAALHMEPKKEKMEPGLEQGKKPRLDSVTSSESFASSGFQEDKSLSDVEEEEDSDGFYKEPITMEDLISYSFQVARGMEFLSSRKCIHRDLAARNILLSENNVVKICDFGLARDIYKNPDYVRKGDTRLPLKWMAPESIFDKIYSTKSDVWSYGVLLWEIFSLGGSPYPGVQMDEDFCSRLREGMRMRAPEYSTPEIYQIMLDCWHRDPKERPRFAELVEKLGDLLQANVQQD

c-Raf-1 = target: T11, c-Raf-1 (Homo sapiens, UniProt P04049); experiment: AlphaScreen kinase assay, c-Raf-1; settings: read-out: IC50, activity toward kinase c-Raf-1
T11 construct: purchased Upstate Biotechnology

T1 sequence (P07333 20-972): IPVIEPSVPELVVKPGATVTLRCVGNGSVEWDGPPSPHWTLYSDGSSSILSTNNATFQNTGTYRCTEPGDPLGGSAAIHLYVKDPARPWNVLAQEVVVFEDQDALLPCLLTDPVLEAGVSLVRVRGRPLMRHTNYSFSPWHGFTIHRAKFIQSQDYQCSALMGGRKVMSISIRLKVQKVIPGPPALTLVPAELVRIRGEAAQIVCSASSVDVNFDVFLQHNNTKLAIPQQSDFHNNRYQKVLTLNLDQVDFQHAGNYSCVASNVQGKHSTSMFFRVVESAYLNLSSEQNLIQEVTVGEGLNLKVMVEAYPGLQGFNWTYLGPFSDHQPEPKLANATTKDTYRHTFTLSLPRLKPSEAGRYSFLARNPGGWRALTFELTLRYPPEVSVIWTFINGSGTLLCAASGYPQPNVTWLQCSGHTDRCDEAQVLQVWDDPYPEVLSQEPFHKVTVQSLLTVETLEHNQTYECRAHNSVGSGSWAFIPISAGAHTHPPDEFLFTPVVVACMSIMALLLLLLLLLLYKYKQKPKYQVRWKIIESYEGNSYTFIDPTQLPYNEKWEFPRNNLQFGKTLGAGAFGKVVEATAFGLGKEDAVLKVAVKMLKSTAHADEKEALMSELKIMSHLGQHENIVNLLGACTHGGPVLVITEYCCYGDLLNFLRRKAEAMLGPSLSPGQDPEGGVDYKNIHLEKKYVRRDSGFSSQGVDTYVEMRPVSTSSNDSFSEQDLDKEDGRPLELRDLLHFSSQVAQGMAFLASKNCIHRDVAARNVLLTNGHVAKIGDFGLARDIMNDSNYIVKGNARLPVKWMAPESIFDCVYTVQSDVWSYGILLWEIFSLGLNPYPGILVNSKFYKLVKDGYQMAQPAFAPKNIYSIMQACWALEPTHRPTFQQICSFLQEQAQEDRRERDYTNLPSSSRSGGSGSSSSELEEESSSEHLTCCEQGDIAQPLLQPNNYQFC

| Compound | IC50 (Fms) [µM] | IC50 (B-Raf V600E) [µM] | IC50 (B-Raf) [µM] | IC50 (Kit) [µM] | IC50 (Jnk3) [µM] | other results |
| --- | --- | --- | --- | --- | --- | --- |
| O=C(Nc1ccccc1)Nc1cccc(C(=O)c2c[nH]c3ncccc23)c1 [Compound P-1703, 1-Phenyl-3-[3-(1H-pyrrolo[2,3-b]pyridine-3-carbonyl)-phenyl]-urea] | ≤ 10 | ≤ 10 | ≤ 10 | ≤ 10 | ≤ 10 | – |
| CC(=O)Nc1cccc(Nc2cnc3[nH]ccc3c2)c1 [Compound P-1032] | – | – | – | – | ≤ 10 | – |
| COc1ccc(F)c(C(=O)c2c[nH]c3ncccc23)c1 [Compound P-0103] | ≤ 10 | – | – | ≤ 10 | – | IC50 (FGFR1): ≤ 10 µM; IC50 (Kdr): ≤ 10 µM; IC50 (Ret): ≤ 10 µM; IC50 (Flt1): ≤ 10 µM |
| Oc1ccc(Cc2c[nH]c3ncc(-c4ccsc4)cc23)cc1O [Compound P-0683] | – | ≤ 10 | ≤ 10 | ≤ 10 | ≤ 10 | IC50 (FGFR1): ≤ 10 µM; IC50 (Kdr): ≤ 10 µM; IC50 (Ret): ≤ 10 µM; IC50 (Flt1): ≤ 10 µM |
| c1ccc2sc(-c3cnc4[nH]ccc4c3)cc2c1 [Compound P-1087] | – | – | – | – | ≤ 10 | – |
| Clc1ccc(-c2cnc3[nH]ccc3c2)s1 [Compound P-1088] | – | – | – | – | ≤ 10 | – |
| COc1cccc(Nc2c[nH]c3ncccc23)c1 [Compound P-1490, (3-Methoxy-phenyl)-(1H-pyrrolo[2,3-b]pyridin-3-yl)-amine] | ≤ 10 | – | – | ≤ 10 | ≤ 10 | – |
| Oc1cccc(C(O)c2c[nH]c3ncc(-c4cccs4)cc23)c1 (stereo not drawn) [Compound P-0710] | – | ≤ 10 | – | – | ≤ 10 | IC50 (FGFR1): ≤ 10 µM; IC50 (Ret): ≤ 10 µM |
| c1ccc(COc2ccccc2Nc2c[nH]c3ncccc23)cc1 [Compound P-1505, (2-Benzyloxy-phenyl)-(1H-pyrrolo[2,3-b]pyridin-3-yl)-amine] | ≤ 10 | ≤ 10 | – | ≤ 10 | ≤ 10 | IC50 (Flt1): ≤ 10 µM |
| COc1cnc2[nH]cc(Sc3ccccn3)c2c1 [Compound P-1561] | – | ≤ 10 | – | – | ≤ 10 | IC50 (FGFR1): ≤ 10 µM |
| O=C(c1ccccc1O)c1c[nH]c2ncc(-c3cccs3)cc12 [Compound P-0757] | – | – | – | ≤ 10 | ≤ 10 | IC50 (Ret): ≤ 10 µM; IC50 (Flt1): ≤ 10 µM |
| c1cncc(-c2cnc3[nH]cc(Cc4ccc5c(c4)OCCO5)c3c2)c1 [Compound P-1529, 3-(2,3-Dihydro-benzo[1,4]dioxin-6-ylmethyl)-5-pyridin-3-yl-1H-pyrrolo[2,3-b]pyridine] | ≤ 10 | ≤ 10 | ≤ 10 | ≤ 10 | ≤ 10 | IC50 (FGFR1): ≤ 10 µM; IC50 (Flt1): ≤ 10 µM |
| Cc1cc(C(=O)c2c[nH]c3ncc(-c4ccsc4)cc23)no1 [Compound P-0640] | – | – | – | ≤ 10 | ≤ 10 | IC50 (FGFR1): ≤ 10 µM; IC50 (Kdr): ≤ 10 µM; IC50 (Ret): ≤ 10 µM; IC50 (Flt1): ≤ 10 µM |
| c1csc(-c2ccnc3[nH]ccc23)c1 [Compound P-0431] | – | – | – | – | – | IC50 (Jnk1): ≤ 10 µM |
| OC(c1ccc(OCc2nc3ccccc3[nH]2)c(F)c1)c1c[nH]c2ncccc12 (stereo not drawn) [Compound P-1898] | – | – | – | – | – | IC50 (Jnk1): ≤ 10 µM |
| CCCCNC(=O)Nc1ccc(F)c(C(=O)c2c[nH]c3ncc(Br)cc23)c1 [Compound P-1637, 1-[3-(5-Bromo-1H-pyrrolo[2,3-b]pyridine-3-carbonyl)-4-fluoro-phenyl]-3-butyl-urea] | ≤ 10 | ≤ 10 | ≤ 10 | – | – | IC50 (Jnk1): ≤ 10 µM |
| Clc1cccc(Nc2c[nH]c3ncccc23)c1 [Compound P-1489, (3-Chloro-phenyl)-(1H-pyrrolo[2,3-b]pyridin-3-yl)-amine] | ≤ 10 | – | – | ≤ 10 | ≤ 10 | – |
| O=C(c1ccccc1O)c1c[nH]c2ncc(Br)cc12 [Compound P-0263] | – | – | – | ≤ 10 | ≤ 10 | – |
| COc1ccc(Nc2ccc3cc[nH]c3n2)cc1 [Compound P-1355, (4-Methoxy-phenyl)-(1H-pyrrolo[2,3-b]pyridin-6-yl)-amine] | – | – | – | – | ≤ 10 | – |
| O=C(c1ccc(-c2cnc3[nH]ccc3c2)cc1)N1CCCC1 [Compound P-0625] | – | – | – | ≤ 10 | ≤ 10 | – |
| NC(=O)c1ccc(-c2cnc3[nH]ccc3c2)cc1 [Compound P-0659] | – | – | – | ≤ 10 | ≤ 10 | IC50 (Ret): ≤ 10 µM |

Further lines, with some results ahead:

| IC50 (Fms) [µM] | IC50 (B-Raf V600E) [µM] | IC50 (B-Raf) [µM] | IC50 (Kit) [µM] | IC50 (Jnk3) [µM] | Compound | other results |
| --- | --- | --- | --- | --- | --- | --- |
| ≤ 10 | ≤ 10 | ≤ 10 | – | – | CCCS(=O)(=O)Nc1cccc(C(=O)c2c[nH]c3ncc(-c4ccc(F)cc4)cc23)c1 [Compound P-1639] | IC50 (Jnk1): ≤ 10 µM |
| – | – | – | ≤ 10 | ≤ 10 | COc1cccc(C(=O)c2c[nH]c3ncc(-c4ccccc4)cc23)c1 [Compound P-0371] | IC50 (FGFR1): ≤ 10 µM; IC50 (Ret): ≤ 10 µM; IC50 (Flt1): ≤ 10 µM |
| ≤ 10 | ≤ 10 | ≤ 10 | – | – | CCCS(=O)(=O)Nc1cccc(C(=O)c2c[nH]c3ncc(-c4cccnc4)cc23)c1C [Compound P-1631] | IC50 (Jnk1): ≤ 10 µM |
| ≤ 10 | ≤ 10 | ≤ 10 | – | ≤ 10 | O=C(Nc1cccc(F)c1)Nc1cccc(C(=O)c2c[nH]c3ncccc23)c1 [Compound P-1716, 1-(3-Fluoro-phenyl)-3-[3-(1H-pyrrolo[2,3-b]pyridine-3-carbonyl)-phenyl]-urea] | – |
| ≤ 10 | ≤ 10 | ≤ 10 | – | – | COc1ccc(NC(=O)Nc2cccc(C(=O)c3c[nH]c4ncc(-c5cccnc5)cc34)c2)cc1OC [Compound P-1725, 1-(3,4-Dimethoxy-phenyl)-3-[3-(5-pyridin-3-yl-1H-pyrrolo[2,3-b]pyridine-3-carbonyl)-phenyl]-urea] | IC50 (Jnk1): ≤ 10 µM |
| ≤ 10 | ≤ 10 | ≤ 10 | – | – | CCCS(=O)(=O)Nc1cccc(C(=O)c2c[nH]c3ncc(-c4cccnc4)cc23)c1 [Compound P-1638] | IC50 (Jnk1): ≤ 10 µM |
| ≤ 10 | ≤ 10 | ≤ 10 | – | – | CCCCNC(=O)Nc1ccc(F)c(C(=O)c2c[nH]c3ncc(-c4cccc(OC(F)(F)F)c4)cc23)c1 [Compound P-1660, 1-Butyl-3-{4-fluoro-3-[5-(3-trifluoromethoxy-phenyl)-1H-pyrrolo[2,3-b]pyridine-3-carbonyl]-phenyl}-urea] | IC50 (Jnk1): ≤ 10 µM |
| – | ≤ 10 | ≤ 10 | – | – | Cc1ccc(S(=O)(=O)Nc2ccc(F)c(C(=O)c3c[nH]c4ncc(Cl)cc34)c2F)cc1 [Compound P-1842, N-[3-(5-Chloro-1H-pyrrolo[2,3-b]pyridine-3-carbonyl)-2,4-difluoro-phenyl]-4-methyl-benzenesulfonamide] | IC50 (Jnk1): ≤ 10 µM |
| ≤ 10 | ≤ 10 | ≤ 10 | ≤ 10 | ≤ 10 | O=C(Nc1cccc(C(=O)c2c[nH]c3ncccc23)c1)Nc1ccc(C(F)(F)F)cc1Cl [Compound P-1713, 1-(2-Chloro-4-trifluoromethyl-phenyl)-3-[3-(1H-pyrrolo[2,3-b]pyridine-3-carbonyl)-phenyl]-urea] | IC50 (c-Raf-1): ≤ 10 µM |
| ≤ 10 | ≤ 10 | ≤ 10 | ≤ 10 | ≤ 10 | O=C(Nc1ccc(F)cc1)Nc1cccc(C(=O)c2c[nH]c3ncccc23)c1 [Compound P-1704, 1-(4-Fluoro-phenyl)-3-[3-(1H-pyrrolo[2,3-b]pyridine-3-carbonyl)-phenyl]-urea] | – |
